Values joined by “and” are separate entries in the source; they are usually repeats but may differ in a detail not shown here. Equal values may be shown once.
How the values were obtained:
in vitro = assay type: cell-based, African green monkey; details: African green monkey; Vero-hSLAM, 72 hours
Protocol: (§1) To determine cytotoxic concentrations Vero-hSLAM cells were plated in 96 well plates (1.1 × 10^4 per well) and incubated with three-fold serial dilutions of compound. After incubation of uninfected cells for 72 hours, PrestoBlue substrate (Invitrogen) was added to quantify cell metabolic activity as described. Signal was measured using a BioTek H1 synergy multimode microplate reader. Where applicable, cytotoxic concentrations (CC50) were calculated based on four-parameter variable slope regression modeling.

Vero-hSLAM cells = assay: in vitro; assay type: cell-based, African green monkey
Protocol: as §1

WT MeV L-P complexes = WT MeV L-P complexes (Measles virus, UniProt Q9WMB3); assay: In vitro MeV RdRP assay, de novo initiation, 16-nt template, L WT; assay type: biochemical; details: de novo RNA synthesis, S9 Fig
MeV = assay: Antiviral dose-response assay, MeV-NanoPEST reporter virus in Vero-hSLAM cells
MeV L E858D [1] = biological target: T1, MeV L E858D (Measles virus, UniProt P12576, E858D); design: method as in PMID 32661315; details: minigenome, reported previously ref 36; cited from earlier work
T1 construct: expressed in transfected cells; host or cells: BSR-T7/5

MeV L E858D [2] = biological target: T1, MeV L E858D; assay: MeV minigenome dose-response assay, L E858D; assay type: cell-based; details: EC50, L E858D vs WT
MeV L T1010N [3] = biological target: T2, MeV L T1010N (Measles virus, UniProt P12576, T1010N); assay: MeV minigenome dose-response assay, L T1010N; assay type: cell-based; details: EC50, L T1010N vs WT
T2 construct: expressed in transfected cells; host or cells: BSR-T7/5

MeV L H589Y = biological target: T3, MeV L H589Y (Measles virus, UniProt P12576, H589Y); assay: MeV minigenome dose-response assay, L H589Y; assay type: cell-based; details: for minigenome activity, individual repeat: H589Y, Figure 1E
T3 construct: expressed in transfected cells; host or cells: BSR-T7/5

MeV L1708 Y1106S = biological target: MeV L1708 Y1106S; design: method as in PMID 32661315; details: BLI, reported previously ref 36; cited from earlier work
MeV L L1170F = biological target: T4, MeV L L1170F (Measles virus, UniProt P12576, L1170F); assay: MeV minigenome dose-response assay, L L1170F; assay type: cell-based; details: for minigenome activity, individual repeat: Figure 1E
T4 construct: expressed in transfected cells; host or cells: BSR-T7/5

MeV L Y1106S [4] = biological target: T5, MeV L Y1106S (Measles virus, UniProt P12576, Y1106S); assay: MeV minigenome dose-response assay, L Y1106S; assay type: cell-based; details: EC50, L Y1106S vs WT
T5 construct: expressed in transfected cells; host or cells: BSR-T7/5

MeV L T776A = biological target: T6, MeV L T776A (Measles virus, UniProt P12576, T776A); assay: MeV minigenome dose-response assay, L T776A; assay type: cell-based
T6 construct: expressed in transfected cells; host or cells: BSR-T7/5

MeV L1708 = MeV L1708 (Measles virus, UniProt Q9WMB3); design: method as in PMID 32661315; details: BLI, MeV L1708 WT; reported previously ref 36; cited from earlier work
MeV L I1009F [5] = biological target: T7, MeV L I1009F (Measles virus, UniProt P12576, I1009F); design: method as in PMID 32661315; details: minigenome, reported previously ref 36; cited from earlier work
T7 construct: expressed in transfected cells; host or cells: BSR-T7/5

MeV L Y1106S [6] = biological target: T5, MeV L Y1106S; design: method as in PMID 32661315; details: minigenome, reported previously ref 36; cited from earlier work
MeV L = biological target: T8, MeV L (Measles virus, UniProt P12576); assay: MeV minigenome dose-response assay, L WT; assay type: cell-based; details: for minigenome activity, individual repeat: WT, Figure 1E
T8 construct: expressed in transfected cells; host or cells: BSR-T7/5

MeV L T1010N [7] = biological target: T2, MeV L T1010N; design: method as in PMID 32661315; details: minigenome, reported previously ref 36; cited from earlier work
MeV L V1239A = biological target: T9, MeV L V1239A (Measles virus, UniProt P12576, V1239A); assay: MeV minigenome dose-response assay, L V1239A; assay type: cell-based; details: for minigenome activity, individual repeat: Figure 1E
T9 construct: expressed in transfected cells; host or cells: BSR-T7/5

MeV L1708 I1009F = biological target: MeV L1708 I1009F; design: method as in PMID 32661315; details: BLI, reported previously ref 36; cited from earlier work
MeV L I1009F [8] = biological target: T7, MeV L I1009F; assay: MeV minigenome dose-response assay, L I1009F; assay type: cell-based; details: EC50, L I1009F vs WT
MeV L1708 E858D = biological target: MeV L1708 E858D; design: method as in PMID 32661315; details: BLI, reported previously ref 36; cited from earlier work
MeV L S768A = biological target: T10, MeV L S768A (Measles virus, UniProt P12576, S768A); assay: MeV minigenome dose-response assay, L S768A; assay type: cell-based
T10 construct: expressed in transfected cells; host or cells: BSR-T7/5

Cn1nc(C(F)(F)F)cc1C(=O)Nc1ccc(S(=O)(=O)N2CCCC[C@@H]2CCOCc2ccc(N=[N+]=[N-])cc2)cc1 [ERDRP-0519az, S(=O)(=O)(N1[C@@H](CCOCc2ccc(N=[N+]=[N-])cc2)CCCC1)c1ccc(NC(=O)c2n(C)nc(C(F)(F)F)c2)cc1]
CC50 (in vitro): > 100 µM
Cytotoxicity, normalized metabolic activity (Figure 5B) (Vero-hSLAM cells; cpd concentration 0.045725): 97.5938 and 98.2663 and 103.31
Cytotoxicity, normalized metabolic activity (Figure 5B) (Vero-hSLAM cells; cpd concentration 0.137174): 101.061 and 94.8618 and 104.907
Cytotoxicity, normalized metabolic activity (Figure 5B) (Vero-hSLAM cells; cpd concentration 0.411523): 95.7655 and 116.003 and 116.276
Cytotoxicity, normalized metabolic activity (Figure 5B) (Vero-hSLAM cells; cpd concentration 1.23457): 92.9074 and 113.376 and 114.469
Cytotoxicity, normalized metabolic activity (Figure 5B) (Vero-hSLAM cells; cpd concentration 3.7037): 94.1683 and 104.487 and 118.02
Cytotoxicity, normalized metabolic activity (Figure 5B) (Vero-hSLAM cells; cpd concentration 11.1111): 88.7254 and 96.8582 and 105.432
Cytotoxicity, normalized metabolic activity (Figure 5B) (Vero-hSLAM cells; cpd concentration 33.3333): 97.5097 and 90.4066 and 94.9249
Cytotoxicity, normalized metabolic activity (Figure 5B) (Vero-hSLAM cells; cpd concentration 100): 99.0228 and 98.1192 and 101.776
cytotoxicity (Vero-hSLAM cells; highest concentration tested (100 μM)): No cytotoxicity was detectable
bioactivity in the in vitro RdRP assay (WT MeV L-P complexes): diminished potency
EC50 (MeV): 12.1 µM
MeV inhibition, normalized reporter signal (Figure 5B) (MeV; cpd concentration 0.045725): 95.5633 and 136.086 and 77.2785
MeV inhibition, normalized reporter signal (Figure 5B) (MeV; cpd concentration 0.137174): 112.785 and 92.1722 and 86.1147
MeV inhibition, normalized reporter signal (Figure 5B) (MeV; cpd concentration 0.411523): 116.552 and 130.546 and 132.822
MeV inhibition, normalized reporter signal (Figure 5B) (MeV; cpd concentration 1.23457): 119.15 and 109.045 and 127.688
MeV inhibition, normalized reporter signal (Figure 5B) (MeV; cpd concentration 11.1111): 44.8748 and 67.0329 and 58.1588
MeV inhibition, normalized reporter signal (Figure 5B) (MeV; cpd concentration 33.3333): 8.061 and 7.668 and 10.5185
MeV inhibition, normalized reporter signal (Figure 5B) (MeV; cpd concentration 100): 2.512 and 3.634 and 2.904

NC(=O)c1c(F)cccc1-c1cccc2cnccc12 [GHP-88309]
EC50 (MeV L E858D [1]): 15 µM
fold change to WT (MeV L E858D [2]): 6.7
fold change to WT (MeV L T1010N [3]): 3.8
fold change to WT (MeV L H589Y; EC50, L H589Y vs WT): 1.8
minigenome activity, individual repeat (MeV L H589Y; GHP-88309 0.0457247 µM): 99.134 and 165.3 and 161.609
minigenome activity, individual repeat (MeV L H589Y; GHP-88309 0.137174 µM): 129.072 and 126.646 and 70.0978
minigenome activity, individual repeat (MeV L H589Y; GHP-88309 0.411523 µM): 102.614 and 60.5017 and 60.0219
minigenome activity, individual repeat (MeV L H589Y; GHP-88309 1.23457 µM): 96.1391 and 78.5761 and 76.4935
minigenome activity, individual repeat (MeV L H589Y; GHP-88309 3.7037 µM): 76.5304 and 44.0459 and 30.8961
minigenome activity, individual repeat (MeV L H589Y; GHP-88309 11.1111 µM): 19.3913 and 21.0627 and 38.9421
minigenome activity, individual repeat (MeV L H589Y; GHP-88309 33.3333 µM): 3.067 and 1.981 and 4.217
minigenome activity, individual repeat (MeV L H589Y; GHP-88309 100 µM): -0.2175 and 2.229 and 0.06723
EC50 (MeV L H589Y; minigenome, L H589Y): 3.91 µM
Kd (MeV L1708 Y1106S): > 300 µM
fold change to WT (MeV L L1170F; EC50, L L1170F vs WT): 0.7
minigenome activity, individual repeat (MeV L L1170F; GHP-88309 0.0457247 µM, L L1170F): 120 and 119 and 105
minigenome activity, individual repeat (MeV L L1170F; GHP-88309 0.137174 µM, L L1170F): 97 and 98 and 103
minigenome activity, individual repeat (MeV L L1170F; GHP-88309 0.411523 µM, L L1170F): 56 and 67 and 65
minigenome activity, individual repeat (MeV L L1170F; GHP-88309 1.23457 µM, L L1170F): 92 (2×) and 86
minigenome activity, individual repeat (MeV L L1170F; GHP-88309 3.7037 µM, L L1170F): 27 and 26 and 21
minigenome activity, individual repeat (MeV L L1170F; GHP-88309 11.1111 µM, L L1170F): 0 (2×) and 1
minigenome activity, individual repeat (MeV L L1170F; GHP-88309 33.3333 µM, L L1170F): -1 and 0 (2×)
EC50 (MeV L L1170F; minigenome, L L1170F): 2.41 µM
fold change to WT (MeV L Y1106S [4]): >50
fold change to WT (MeV L T776A; EC50, L T776A vs WT): 1.1
EC50 (MeV L T776A; minigenome, L T776A): 2.39 µM
Kd (MeV L1708): 6.2 µM
EC50 (MeV L I1009F [5]): 18.6 µM
EC50 (MeV L Y1106S [6]): > 100 µM
minigenome activity, individual repeat (MeV L; GHP-88309 0.411523 µM): 87.746 and 92.4701
minigenome activity, individual repeat (MeV L; GHP-88309 1.23457 µM): 77.6244 and 62.4876 and 68.5227 and 90 and 86 and 112
minigenome activity, individual repeat (MeV L; GHP-88309 3.7037 µM): 31.991 and 34.7895 and 30.6512 and 25 and 32 and 29
minigenome activity, individual repeat (MeV L; GHP-88309 11.1111 µM): 2.411 and 2.106 and 2.445 and 2 and 4 and 3
minigenome activity, individual repeat (MeV L; GHP-88309 33.3333 µM): 1.248 and 0.5543 and 0.7091 and -4 and 2 and 3
minigenome activity, individual repeat (MeV L; GHP-88309 100 µM): 0.7732 and 1.544 and 0.3453
EC50 (MeV L; minigenome, L WT): 2.4 µM
EC50 (MeV L T1010N [7]): 8.36 µM
fold change to WT (MeV L V1239A; EC50, L V1239A vs WT): 0.7
minigenome activity, individual repeat (MeV L V1239A; GHP-88309 0.0457247 µM, L V1239A): 96 and 97 and 118
minigenome activity, individual repeat (MeV L V1239A; GHP-88309 0.137174 µM, L V1239A): 120 and 103
minigenome activity, individual repeat (MeV L V1239A; GHP-88309 0.411523 µM, L V1239A): 66 and 59 (2×)
minigenome activity, individual repeat (MeV L V1239A; GHP-88309 1.23457 µM, L V1239A): 80 and 79 (2×)
minigenome activity, individual repeat (MeV L V1239A; GHP-88309 3.7037 µM, L V1239A): 33 (2×) and 30
minigenome activity, individual repeat (MeV L V1239A; GHP-88309 11.1111 µM, L V1239A): 2 (2×) and 3
minigenome activity, individual repeat (MeV L V1239A; GHP-88309 33.3333 µM, L V1239A): -2 and 1 (2×)
EC50 (MeV L V1239A; minigenome, L V1239A): 2.03 µM
Kd (MeV L1708 I1009F): 68.3 µM
fold change to WT (MeV L I1009F [8]): 8.3
Kd (MeV L1708 E858D): 8.6 µM
fold change to WT (MeV L S768A; EC50, L S768A vs WT): 0.6
EC50 (MeV L S768A; minigenome, L S768A): 1.26 µM

— PMC7935272 (PLoS Pathogens, 2021)
